Results published in patent EP2604600A1, “Isatin derivatives and their use in therapy” (priority 2011, dated 2013).
In brackets after ≈: the same amount, converted by molar mass. Read-outs that look alike come from different tables or passages of the source.

What was measured:
M. tuberculosis H37Rv [1] = experiment: Resazurin MIC assay, pan-sensitive strain; type: cell-based; details: Mycobacterium tuberculosis, 48 h
M. tuberculosis H37Rv [2] = experiment: MBC assay with H37Rv; type: cell-based; details: Mycobacterium tuberculosis, 504 h; performed with H37Rv; concentration that inhibits ≥ 99.9% of the initial bacterial inoculum; 3 weeks on 7H10 agar at 37°C
Protocol: The MBC assay with H37Rv was performed as an adjunct to the MIC assay and was used to determine the concentration of drug that is lethal to the target bacterium in vitro. A small aliquot (i.e., 10 µl) was removed from appropriate dilutions in the 96-well plate used to determine the MIC value with subsequent streaking on 7H10 agar plates. Five wells were selected, representing the well yielding the MIC value and 2 wells above and below the well that yielded the MIC value. After 3 weeks of incubation at 37°C, the agar plates were inspected for the presence or absence of growth. The MBC value is the concentration in µg/ml that inhibits ≥ 99.9% of the initial bacterial inoculum. Antimicrobials are usually regarded as bactericidal if the MBC is no more than four times the MIC. while the bacteriostatic agents have MIC values that are much lower than the MBC.

[3] = Precipitation noted during the MIC assay; type: physicochemical; details: observed in the MIC assay plates, 7H9 medium
Protocol: Stock solutions were prepared at 3.2 mg/ml which were then diluted as indicated below: 1. 20 µl of the 3.2 mg/ml stock of the test compound were added to a 96-well microtiter plate. 2. 2-fold dilutions were made by the addition of 20 µl of diluent.
3. Each dilution was further diluted 1:10 in sterile water (10 µl of dilution to 90 µl of sterile water). Note: The additional 10-fold dilution in water is required when DMSO is used as solvent to minimize toxicity to the bacteria. For uniformity in the assay procedure, this dilution step was used even if water or other solvents were used.
The following steps are followed in preparing the 96-wcll plates: • 1. 6.25 µl of each dilution were transferred to duplicate 96-well test plates. • 2. 93.75 µl of the cell suspension (∼ 10^4 bacteria) in 7H9 medium were added to the test plates. • 3. Positive, negative, sterility and resazurin controls were tested: • a. Positive controls include: appropriate antibiotics for each resistant strain and rifampicin and isoniazid for 113 7Rv • b. Negative controls include: • i. cell culture with solvent and water • i.i. cell culture only • c. Sterility controls include: • i. medium only • ii. medium with solvent and water • d. […] This control plate is needed to verify whether the compound reacts with resazurin that could possibly elicit fluorescence. • 4. […]

[4] = Table 3, standard test strain H37Rv, read-out: MIC Value (µg/ml) H37Rv*
[5] = H37RV, Table 2, Resazurin MIC assay, […], read-out: MIC H37Rv

For `O=C1Nc2ccc(Cl)cc2C1=NNC(=O)c1ccncc1` [Compound 3a], the MIC (M. tuberculosis H37Rv [1]; [4]) was 1.25 µg/mL (≈ 4.16 µM), the MIC (M. tuberculosis H37Rv [1]; [5]) was 1.25 µg/mL (≈ 4.16 µM) and the MBC (M. tuberculosis H37Rv [2]) was 1.25 µg/mL (≈ 4.16 µM). For the same molecule, the “Comments (precipitation)” value [3] was “Precipitation observed at 10 µg/ml”.

For `O=C1Nc2ccc(F)cc2C1=NNC(=O)c1ccncc1` [Compound 3b, reference compound], the MIC (M. tuberculosis H37Rv [1]; [5]) was 10 µg/mL (≈ 35.2 µM).

`O=C1Nc2ccc([N+](=O)[O-])cc2C1=NNC(=O)c1ccncc1` [Compound 3c] gave an MIC (M. tuberculosis H37Rv [1]; [4]) of 0.156 µg/mL (≈ 0.501 µM), an MIC (M. tuberculosis H37Rv [1]; [5]) of 0.156 µg/mL (≈ 0.501 µM) and an MBC (M. tuberculosis H37Rv [2]) of 0.31 µg/mL (≈ 0.996 µM).

In the case of `O=C1Nc2ccc(F)cc2C1=NNC(=O)c1ccc([N+](=O)[O-])o1` [Compound 3d], the MIC (M. tuberculosis H37Rv [1]; [5]) is reported as 5 µg/mL (≈ 15.7 µM).

In the case of `O=C1Nc2ccc(OC(F)(F)F)cc2C1=NNC(=O)c1ccc([N+](=O)[O-])o1` [Compound 3e], the MIC (M. tuberculosis H37Rv [1]; [4]) is reported as 2.5 µg/mL (≈ 6.51 µM), the MIC (M. tuberculosis H37Rv [1]; [5]) is reported as 2.5 µg/mL (≈ 6.51 µM) and the MBC (M. tuberculosis H37Rv [2]) is reported as 2.5 µg/mL (≈ 6.51 µM).

Molecule `O=C(NN=C1C(=O)N(c2ccccc2)c2ccccc21)c1ccc([N+](=O)[O-])o1` [Compound 3f] has an MIC (M. tuberculosis H37Rv [1]; [5]) of 5 µg/mL (≈ 13.3 µM).

In the case of `O=C(NN=C1C(=O)N(Cc2ccccc2)c2ccccc21)c1ccc([N+](=O)[O-])o1` [Compound 3g], the MIC (M. tuberculosis H37Rv [1]; [4]) is reported as 0.156 µg/mL (≈ 0.4 µM), the MIC (M. tuberculosis H37Rv [1]; [5]) is reported as 0.156 µg/mL (≈ 0.4 µM) and the MBC (M. tuberculosis H37Rv [2]) is reported as 0.156 µg/mL (≈ 0.4 µM). For the same molecule, the “Comments (precipitation)” value [3] was “Precipitation observed at 10 µg/ml”.

With `O=C(NN=C1C(=O)N(Cc2ccccc2)c2ccc(Cl)cc21)c1ccc([N+](=O)[O-])o1` [Compound 3h] the MIC (M. tuberculosis H37Rv [1]; [5]) was 0.312 µg/mL (≈ 0.734 µM).

`O=C(NN=C1C(=O)N(Cc2ccccc2)c2ccc(F)cc21)c1ccc([N+](=O)[O-])o1` [Compound 3i] showed an MIC (M. tuberculosis H37Rv [1]; [5]) of 0.156 µg/mL (≈ 0.382 µM).

In the case of `Cc1ccc2c(c1)C(=NNC(=O)c1ccc([N+](=O)[O-])o1)C(=O)N2Cc1ccccc1` [Compound 3j], the MIC (M. tuberculosis H37Rv [1]; [5]) is reported as 1.25 µg/mL (≈ 3.09 µM).

Work on `NNC(=O)c1ccncc1` [Isoniazid, reference compound] yielded an MIC (M. tuberculosis H37Rv [1]; [4]) of 0.063 µg/mL (≈ 0.459 µM) and an MIC (M. tuberculosis H37Rv [1]; [5]) of 0.063 µg/mL (≈ 0.459 µM).

For `CO[C@H]1/C=C/O[C@@]2(C)Oc3c(C)c(O)c4c(O)c(c(/C=N/N5CCN(C)CC5)c(O)c4c3C2=O)NC(=O)/C(C)=C\C=C\[C@H](C)[C@H](O)[C@@H](C)[C@@H](O)[C@@H](C)[C@H](OC(C)=O)[C@@H]1C` [Rifampin, reference compound], the MIC (M. tuberculosis H37Rv [1]; [4]) was 0.0125 µg/mL (≈ 0.0152 µM) and the MIC (M. tuberculosis H37Rv [1]; [5]) was 0.0031 µg/mL (≈ 0.00377 µM).
